Data set [1] is described as follows: in vitro. The conditions noted are these: human.
Data set [2] deals with Punta Toro virus (strain Adames).
Another data set deals with SARSCoV. Description: organism not typed. The conditions noted are these: read-out: SARSCoV IC50. The class given is cell-based.
The nature of data set [3]: in vitro. The conditions noted are these: human. The source holds these as a separate data set.
The next data set relates to PBM cells. The conditions noted are these: human.
The test system of a further data set is HIV-1 (strain LAI). The class given is cell-based.

Each structure is given as a SMILES string.

What is called IC50 is the midpoint of a concentration-inhibition curve. Take `Nc1nc(O)c2[nH]cc([C@@H]3C=C(CO)[C@@H](O)[C@H]3O)c2n1` [Compound 2, (1′S,2′S,3′R)-9-(2′,3′-Dihydroxy-4′-hydroxymethyl-4′-cyclopenten-1′-yl)-deazaguanosine]: the half-inhibitory concentration (IC50) in “in vitro [1]”, in the data set with SARSCoV and in “in vitro [3]” was > 100 µM in each case. For the same compound, in data set [2], the “Cytotoxicity in the Punta Toro virus assay (in words)” value was “without any cytotoxicity”.
For the compound `Cc1cn([C@H]2C[C@H](N=[N+]=[N-])[C@@H](CO)O2)c(=O)[nH]c1=O` [AZT], the IC50 in the data set with PBM cells was > 100 µM.
For `Nc1ncnc2c([C@@H]3C=C(CO)[C@@H](O)[C@H]3O)c[nH]c12` [Compound 1, (1′S,2′S,3′R)-4-Amino-7-(2′,3′-dihydroxy-4′-hydroxymethyl-4′-cyclopenten-1′-yl)-5H-pyrrolo[3,2-d]pyrimidine], the “Anti-HIV activity (in words)” value in the data set on HIV-1 (strain LAI) is “moderate anti-HIV activity”.
Regarding `Nc1nc(=O)c([C@@H]2C=C(CO)[C@@H](O)[C@H]2O)c[nH]1` [Compound 3, (1′S,2′S,3′R)-5-(2′,3′-Dihydroxy-4′-hydroxymethyl-4′-cyclopenten-1′-yl)-isocytosine], the half-maximal inhibitory concentration (IC50) in the data set “in vitro [1]”, in the data set with SARSCoV and in “in vitro [3]” was > 100 µM each time.
As to `O=c1[nH]cc([C@@H]2C=C(CO)[C@@H](O)[C@H]2O)c(=O)[nH]1` [Compound 4, (1′S,2′S,3′R)-5-(2′,3′-Dihydroxy-4′-hydroxymethyl-4′-cyclopenten-1′-yl)uracil], the IC50 in “in vitro [1]”, in the data set on SARSCoV and in “in vitro [3]” was > 100 µM in each case. Also, the “Cytotoxicity in the Punta Toro virus assay (in words)” value in data set [2] is listed as “without any cytotoxicity”.
